The values that follow come from patent US8969395B2, “Triterpenoid derivatives useful as antiproliferative agents” (Universidade de Coimbra, priority 2009, dated 2015).

One experiment deals with HepG2 cells. The experiment is described as follows: Apoptosis, Annexin V-FITC/PI FACS, HepG2. The experiment is classed as cell-based, human. Particulars: HepG2, at IC50, 72 h; for effectiveness at inducing apoptosis: FIG. 8; for apoptosis (% of cells, early plus late): in comparison with untreated controls. The method, then: (§1) Assessment of apoptosis was performed 72 h after treatment with derivatives at their IC50. Briefly, the same number of HepG2, HeLa, Jurkat and Chang liver cells as in the cell cycle assay were treated with compounds 20, 44, 46 and betulinic acid 2, as described above. Cells were collected washed once in ice-sold binding buffer (10 mM HEPES/NaOH, pH 7.4, 140 mM NaCl, 2.5 mM CaCl2) and ressuspended in the same buffer (95 μl) at a maximum, of 8×10^5 cells/ml. Annexin V-FITC conjugate (1 μg/ml) was added and incubated for 30 min at room temperature in darkness. Just before FACS analysis, cells were stained with 20 μl of […]. Approximately 1×10^4 cells were analysed for each histogram and experiments were performed three times with triplicates per experiment. FACS analysis using Annexin V-FITC staining and PI accumulation was used to differentiate early apoptotic cells (Annexin V^+ and PI^−) from necrotic or late apoptotic cells (Annexin V^+ and PI^+). […] In comparison with untreated controls, compound 44 treatment of HepG2 cells generated apoptosis in 53% of cells (42% of early apoptosis and 11% of late apoptosis), compound 46 generated apoptosis in 38% of cells (28% of early apoptosis plus 10% late apoptosis) and compound 20 induced apoptosis in 29% of cells (22% of early apoptosis plus 7% late apoptosis) (FIG. 8).

Experiment [1] concerns Chang liver (normal liver cell line). The experiment is described as follows: Apoptosis, Annexin V-FITC/PI FACS, Chang liver. The experiment is classed as cell-based, human. Particulars: at the IC80 found for HepG2, FIG. 8. The method, then: as §1, with “Briefly,” for “Assessment of apoptosis was performed 72 h after treatment with derivatives at their IC50. Briefly,”
In experiment [2] the test system is Jurkat cells. The experiment is described as follows: Apoptosis, Annexin V-FITC/PI FACS, Jurkat. The experiment is classed as cell-based, human. Particulars: at IC50, 72 h, FIG. 8. The method, then:
as §1

Experiment [3] concerns Chang liver (human normal liver cells). The experiment is described as follows: Cytotoxic activity against non-tumoral cell line, MTT assay. In kind it is cell-based. Particulars: 72 h, mean ±SD. The method, then: The cytotoxic of compounds of formulas (I) and (II) 14-50 was assessed towards human cancer (HepG2, HeLa and Jurkat) cell lines (Table 3 below). Compounds presented on Table 4 were also tested against a non-tumoral liver cell line (Chang liver). The cell viability of HeLa, HepG2 and Chang liver cells was determined by the MTT assay. Briefly, exponentially growing cells were plated in 96-well plates at a density of 1×10^3, 8×10^3 and 5×10^3 cells/well respectively and incubated for 24 h before treatment. The grown medium was replaced with one contained the tested compounds dissolved in DMSO (final DMSO concentration <0.1%) at different concentrations, in triplicate wells, and cells were incubated for 72 h. After incubation with the compounds, the medium was removed and MTT solution (0.5 mg/ml, 100 μl) was added to each well and the plates were incubated again for 1 h. DMSO (100 μl) was then added to dissolve the formazan crystals and the plates were immediately read at 550 nm on an ELISA plate reader (Tecan Sunrise MR20-301, TECAN, Austria). For the Jurkat cells, the cell viability was determined by the XTT assay. Briefly, exponentially growing cells were plated in 96-well plates at a density of 5.5×10^3 cells/well, treated with different concentrations of compounds in triplicate and incubated for 72 h. After incubation with the compounds the XTT labeling mixture (100 μl) were added to each of the wells and after a 4 h incubation period the plates were read at 450 nm on an ELISA plate reader. […] Known for its cytotoxic activity, betulinic acid 2 was used as a positive control in this experimentation. […] All the IC50 results represent an average of a minimum of three experiments and were expressed as means±standard deviation (SD).

The subject of experiment [4] is Jurkat cells. The experiment is described as follows: Cell cycle analysis by flow cytometry (FACS, PI), Jurkat. In kind it is cell-based, human. Conditions: compound at its IC50, 72 h. The method, then:
(§2) The effects on the cell cycle of some of these compounds were assessed through flow cytometry by using a fluorescence-activated cell sorter (FACS) (Table 5 below). For this assay 2.3×10^5 HepG2 cells/well, 2.9×10^4 HeLa cells/well, 1.6×10^5 Jurkat cells/well and 1.4×10^5 Chang liver cells/well were plated in 6 well plates with 2 ml of medium. The number of cells was determined by the relationship number of cells/area wells, considering the number of cells that were cultured in 96-well plates. […] Chang liver cells were incubated with compounds 20, […] at concentrations corresponding to the IC80 determined for HepG2 at 72 h. Following 72 h. of incubation, cells were harvested by mild trypsinization, collected by centrifugation and stained in ice-cold Tris-buffered saline (TBS), containing 1 mg/ml PI, 10 mg/ml RNAse free of DNAase and 0.1% Igepal CA-630 for 1 h at 4° C. FACS analysis was carried out at 488 nm in an Epics XL flow cytometer (Coulter Corporation, Hialeah, Fla.). Data from 8×10^3 cells were collected and analyzed using Multicycle program (Phoenix Flow Systems, San Diego, Calif.). All experiments were performed three times with three replicates per experiment. […] To explore the selectivity of the effect on tumor cells, we also tested compounds 20, 44 and 46 in a non-malignant cell line. Chang liver cells were treated with the compounds at the IC80 values determined for HepG2 after 72 h of incubation and no effect was observed, indicating a selective effect of these agents (Table 5 below).
In general terms: Flow cytometry measures light scatter and fluorescence of single cells or particles in a stream.

The subject of another experiment is HeLa cells. The experiment is described as follows: Cell cycle analysis by flow cytometry (FACS, PI), HeLa. In kind it is cell-based, human. Conditions: compound at its IC50, 72 h. As for the experimental part: as §2

As to `C=C(C)[C@@H]1CC[C@]2(C(=O)n3ccnc3)CC[C@]3(C)[C@H](CC[C@@H]4[C@@]5(C)CCC(=O)C(C)(C)[C@@H]5CC[C@]43C)[C@@H]12` [Compound 44, 28-(1H-imidazol-1-yl)-lup-20(29)-en-3,28-dione], in the experiment on HepG2 cells, the “early apoptosis (Annexin V+ and PI-)” value was 42%; the “late apoptosis (Annexin V+ and PI+)” value is listed as 11%; the “effectiveness at inducing apoptosis” value is “most effective”; the “apoptosis (% of cells, early plus late)” value is listed as 53 % of cells. Moreover, the “apoptosis induction in normal liver cell line” value (“apoptosis induction” for short) in experiment [1] was “no effect”. In addition, the “effectiveness at inducing apoptosis” value in the experiment on Jurkat cells [2] was “most effective”. Besides, the IC50 (commonly the midpoint of a concentration-inhibition curve) in experiment [3] worked out at 48.8 ± 2.8 µM. For the same molecule, in the experiment with Jurkat cells [4], the “Phase of cell cycle (% of cells) G0/G1” value was 52.7 ± 0.5 % of cells, the “Phase of cell cycle (% of cells) G2/M” value was 20.8 ± 1.1 % of cells and the “Phase of cell cycle (% of cells) S” value is 26.6 ± 0.9 % of cells. For the same molecule, in the experiment on HeLa cells, the “Phase of cell cycle (% of cells) G0/G1” value is listed as 53.1 ± 1.1 % of cells, the “Phase of cell cycle (% of cells) G2/M” value is given as 13.8 ± 1.1 % of cells and the “Phase of cell cycle (% of cells) S” value is given as 33.1 ± 0.9 % of cells.

As for `C=C(C)[C@@H]1CC[C@]2(C(=O)n3ccnc3)CC[C@]3(C)[C@H](CC[C@@H]4[C@@]5(C)C=CC(=O)C(C)(C)[C@@H]5CC[C@]43C)[C@@H]12` [Compound 46, 28-(1H-imidazol-1-yl)-lup-1,20 (29)-dien-3,28-dione], in the experiment with HepG2 cells, the “early apoptosis (Annexin V+ and PI-)” value was determined as 28%; the “late apoptosis (Annexin V+ and PI+)” value turned out to be 10%; the “effectiveness at inducing apoptosis” value is reported as “extremely effective”; the “apoptosis (% of cells, early plus late)” value is given as 38 % of cells. Further, the “apoptosis induction” value in experiment [1] is “no effect”. Moreover, the “effectiveness at inducing apoptosis” value with Jurkat cells [2] was “extremely effective”. The molecule further yielded an IC50 in experiment [3] of 55.9 ± 4.6 µM. In the experiment with Jurkat cells [4], the “Phase of cell cycle (% of cells) G0/G1” value is recorded as 49.6 ± 2.6 % of cells, the “Phase of cell cycle (% of cells) G2/M” value was 20.7 ± 2.4 % of cells and the “Phase of cell cycle (% of cells) S” value is given as 29.8 ± 0.8 % of cells. In the experiment on HeLa cells, the “Phase of cell cycle (% of cells) G0/G1” value was 64.6 ± 2.4 % of cells, the “Phase of cell cycle (% of cells) G2/M” value is recorded as 9.7 ± 1.3 % of cells and the “Phase of cell cycle (% of cells) S” value is 25.6 ± 1.5 % of cells.

For `C=C(C)[C@@H]1CC[C@]2(CO)CC[C@]3(C)[C@H](CC[C@@H]4[C@@]5(C)CC[C@H](OC(=O)n6ccnc6)C(C)(C)[C@@H]5CC[C@]43C)[C@@H]12` [Compound 20, 28-hydroxy-lup-20(29)-en-3β-yl-1H-imidazole-1-carboxylate], in the experiment with HepG2 cells, the “early apoptosis (Annexin V+ and PI-)” value came to 22%; the “late apoptosis (Annexin V+ and PI+)” value came out at 7%; the “effectiveness at inducing apoptosis” value is “extremely effective”; the “apoptosis (% of cells, early plus late)” value was 29 % of cells. In experiment [1], the “apoptosis induction” value was “no effect”. Further, in the experiment with Jurkat cells [2], the “effectiveness at inducing apoptosis” value was “extremely effective”. The same molecule had an IC50 in experiment [3] of 60.7 ± 3.8 µM. Besides, in the experiment on Jurkat cells [4], the “Phase of cell cycle (% of cells) G0/G1” value is 48.6 ± 4.4 % of cells, the “Phase of cell cycle (% of cells) G2/M” value is recorded as 15.8 ± 2.1 % of cells and the “Phase of cell cycle (% of cells) S” value is recorded as 35.6 ± 3.1 % of cells. Further, in the experiment on HeLa cells, the “Phase of cell cycle (% of cells) G0/G1” value is recorded as 50.6 ± 1.3 % of cells, the “Phase of cell cycle (% of cells) G2/M” value is recorded as 13.0 ± 1.4 % of cells and the “Phase of cell cycle (% of cells) S” value is recorded as 36.4 ± 2.4 % of cells.
